Key:
[1] = system: cells of the dermal papilla of occipital scalp; assay: Hydrolysis of compound 2 to compound 1 in cultivated dermal papilla cells (HPLC of media extracts); type: in vitro ADME, human; details: skin cells, in particular cells of the dermal papilla
Protocol: Monolayer cultures of juvenile prepuce keratinocytes and fibroblasts and of cells of the dermal papilla of occipital scalp were incubated with compound 2 in a concentration of 10^−5 M under standard conditions (5% CO2, 37° C.) for 24 h. The cell culture medium was then extracted with chloroform. The organic phase was evaporated and the residue was taken up in acetonitrile and investigated by HPLC analysis for its content of compounds 1 and 2.

[2] = Microscopic investigations for crystallization of active ingredient in the preparation; type: physicochemical; details: lipid nanoparticle preparations

## CCCCCCCCCCCCCC(=O)OCCCCN1C(=O)N(c2ccc(C#N)c(C(F)(F)F)c2)C(=O)C1(C)C [compound 2]
[1]
  Conversion of compound 2 into compound 1 (in words): significant conversion
[2]
  Crystallization of compound 2 in the preparation (microscopy): no indications of crystallization

From patent US6875438B2, “Preparations for topical administration of substances having antiandrogenic activity” (Aventis Pharma Deutschland GmbH, priority 2002, dated 2005)
